Some test systems named below: A498 renal; HCT-116 colon; HCT-15 colon; HL-60(TB) leukemia; LOX IMVI melanoma; NCI-H460 lung; NCI-H522 lung; SK-MEL-2 melanoma; UACC-257 melanoma; SK-OV-3 ovarian; SNB-75 CNS.
What all share (test): NCI-60 cell line screen, 48 h

Each structure is given as a SMILES string.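 Test compounds were applied to cells in 96-well plates for 48 hours at 5 doses. GI50 marks 50% less growth. At the TGI there is no net growth.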

As for `O=c1[nH]c2[nH]c(=S)[nH]c(=S)c2[nH]1`, the TGI in the assay with A498 renal, in the assay with HCT-116 colon, in the assay with HCT-15 colon, with HL-60(TB) leukemia, in the assay on LOX IMVI melanoma and in the assay with NCI-H460 lung was greater than 100 µM in each case. Further, the TGI in the assay with NCI-H522 lung, in the assay on SK-MEL-2 melanoma and with UACC-257 melanoma was greater than 100 µM throughout.

As to `COc1ccc2nc3cc(Cl)ccc3c(NC(C)CCCN(CCCl)CCCl)c2c1` (configuration not stated), the TGI in the assay with A498 renal came out at 18.7 µM; in the assay with HCT-116 colon it was 1.5 µM; with HCT-15 colon, 6.56 µM; in the assay with HL-60(TB) leukemia it was 0.94 µM; with LOX IMVI melanoma, 1.17 µM; in the assay with NCI-H460 lung it was 1.58 µM. Further, the TGI was 2.24 µM in the assay with NCI-H522 lung; 4.54 µM in the assay with SK-MEL-2 melanoma; 6.59 µM in the assay on SK-OV-3 ovarian; 8.98 µM with SNB-75 CNS; 14.9 µM with UACC-257 melanoma.

With `O=C1C(Cl)N(c2ccccc2Cl)C1c1c[nH]c2ccccc12` (configuration not stated), the TGI in the assay on HCT-116 colon, in the assay with HL-60(TB) leukemia, in the assay on NCI-H460 lung, in the assay on NCI-H522 lung, in the assay with SK-MEL-2 melanoma and in the assay with SK-OV-3 ovarian was greater than 100 µM throughout. Further, the TGI in the assay with SNB-75 CNS and with UACC-257 melanoma was greater than 100 µM in each case.

For the compound `CCN(CC)CCNc1ccc2ncn3c4ccc(O)cc4c(=O)c1c23`, the TGI in the assay on A498 renal came out at 13.7 µM; with HCT-116 colon it was 13 µM; in the assay on HCT-15 colon it was 13 µM; in the assay on HL-60(TB) leukemia, 11.6 µM; in the assay on LOX IMVI melanoma, 3.15 µM; with NCI-H460 lung it was 12.2 µM. Besides, the TGI in the assay with NCI-H522 lung stood at 15.7 µM; in the assay with SK-MEL-2 melanoma, 21.4 µM; in the assay on SK-OV-3 ovarian, 18.2 µM; with SNB-75 CNS, 11.6 µM; with UACC-257 melanoma it was 21.2 µM.

As for `O=C(CSCC(=O)N/N=C/c1cccc(O)c1)N/N=C/c1cccc(O)c1`, the TGI in the assay on A498 renal, in the assay on HCT-116 colon, in the assay with HCT-15 colon, in the assay on HL-60(TB) leukemia, in the assay with NCI-H460 lung and with NCI-H522 lung was greater than 100 µM each time. In addition, the TGI in the assay on SK-MEL-2 melanoma, with SK-OV-3 ovarian, in the assay with SNB-75 CNS and with UACC-257 melanoma was greater than 100 µM throughout.

As for `O=C1c2ccccc2C(=O)c2[nH]cnc21`, the TGI with A498 renal, with HCT-116 colon, with HCT-15 colon, in the assay on HL-60(TB) leukemia, in the assay with NCI-H460 lung and with NCI-H522 lung was greater than 100 µM throughout. In addition, the TGI is greater than 100 µM in the assay with SK-MEL-2 melanoma and 54.2 µM with UACC-257 melanoma.

Consider `O=C1c2cc(O)c(O)cc2O[C@H](c2ccc(O)c(O)c2)[C@H]1O`, for which the TGI in the assay with A498 renal, in the assay on HCT-116 colon, in the assay with HCT-15 colon, in the assay with HL-60(TB) leukemia, in the assay on LOX IMVI melanoma and with NCI-H460 lung was greater than 100 µM throughout. Moreover, the TGI in the assay on NCI-H522 lung, in the assay on SK-MEL-2 melanoma, in the assay with SK-OV-3 ovarian, in the assay with SNB-75 CNS and with UACC-257 melanoma was greater than 100 µM in each case.

On to `O=C1c2cc3c(cc2-c2c1c1ccc(Cl)cc1c(=O)n2C[C@H](O)CO)OCO3`, for which the GI50 in the assay with A498 renal is 0.0387 µM; in the assay on HCT-15 colon, 0.11 µM; in the assay on HL-60(TB) leukemia it was 0.0331 µM; in the assay with LOX IMVI melanoma, 0.0122 µM; with NCI-H522 lung, 0.0422 µM; in the assay on SK-MEL-2 melanoma, 0.284 µM. For the same compound, the GI50 in the assay on SK-OV-3 ovarian is 0.0444 µM; in the assay on SNB-75 CNS, 0.0245 µM; in the assay with UACC-257 melanoma, 0.13 µM. Moreover, the TGI in the assay with A498 renal was found to be 0.16 µM; in the assay on HCT-15 colon it was 1.28 µM; in the assay with HL-60(TB) leukemia, 3.1 µM; with LOX IMVI melanoma, 0.0781 µM; with NCI-H522 lung it was 1.82 µM; with SK-MEL-2 melanoma it was 1.11 µM. Besides, the values for the TGI in the assay with SK-OV-3 ovarian, with SNB-75 CNS and in the assay on UACC-257 melanoma were 1.66 µM, 1.1 µM and 0.604 µM, respectively.

Take `Oc1ccc(C(=C(Br)c2ccccc2)c2ccc(O)cc2)cc1`: the TGI with A498 renal was 34.2 µM; in the assay with HCT-116 colon it was 15.9 µM; with HCT-15 colon, 14.3 µM; in the assay with HL-60(TB) leukemia, greater than 100 µM; in the assay on LOX IMVI melanoma, 17 µM; with NCI-H460 lung it was 31.6 µM. In addition, the TGI came out at 17.6 µM with NCI-H522 lung, 18.3 µM in the assay on SK-MEL-2 melanoma, 16.9 µM with SK-OV-3 ovarian and 25.2 µM in the assay on UACC-257 melanoma.

With `C=CCNC(=O)C(C)C1CCC2(C)C=CC(=O)C(C)=C2C1O` (configuration not stated), the TGI with A498 renal, in the assay with HCT-116 colon, in the assay with HCT-15 colon, with HL-60(TB) leukemia, in the assay on LOX IMVI melanoma and in the assay with NCI-H460 lung was greater than 100 µM throughout. Moreover, the TGI in the assay with NCI-H522 lung, in the assay on SK-MEL-2 melanoma, in the assay with SK-OV-3 ovarian, in the assay on SNB-75 CNS and in the assay with UACC-257 melanoma was greater than 100 µM throughout.

Source of the values: PubChem BioAssay (NCI).
